According to patent US11779625B2, “Composition and application thereof in preparing product for protecting mitochondria” (INFINITUS (CHINA) COMPANY LTD., priority 2021, dated 2023):
Entries after “also recorded” stand apart in the source; their conditions may differ.

Columns and labels:
Slc25a46−/− mice [1] = test: NAMPT enzyme activity in liver tissues (ELISA kit); type: in vivo, mouse; conditions: intragastric every day for 10 days, Example 400, Comparative example 1 100, 2 244, 3 56, 4 500 mg/kg
Method: A certain amount of liver tissues of the mice were homogenized, and a supernatant was taken. […] Marker wells, blank wells and sample wells were provided, 50 μL of markers with different concentrations were added into the marker wells, 50 μL of to-be-tested sample was added into the sample wells, and 50 μL of sample diluent was added into the blank wells. […] 50 μL of substrate A and 50 μL of substrate B were respectively added into each well, and an OD value of each well at a wavelength of 450 nm was measured within 15 minutes. Data was recorded, and statistical analysis was made with Prism software.

[2] = tested on: Slc25a46−/− mouse embryonic fibroblasts; test: MTT in-vitro cytotoxicity experiment (cell morphology and viability), Slc25a46−/− cells; type: cell-based; conditions: 24 hours; for effect on cell viability/growth (MTT): Slc25a46−/− cells
Method: (§1) The MEF cells were derived from wild-type fetal mice (WT) and Slc25a46 homozygous fetal mice (Slc25a46−/−). Pregnant mice were anesthetized and killed, and dissected to obtain mouse embryos, and bodies of fetal mice were obtained, and washed with PBS for 3 times. Clean mouse embryonal tissues were transferred into a culture dish, and cut into pieces, 2 mL of trypsin was added into the tissue pieces, and continuously cut into pieces for several minutes. Then, 5 mL of trypsin was added into the culture dish above, and blown up and down with a straw vigorously, and the culture dish was put into an incubator for incubation for 20 minutes to 30 minutes. The tissues cut into pieces were taken out of the incubator, and added with about 20 mL of MEF medium. A tissue mixture was transferred into each flask and placed into an incubator for overnight incubation. Then, growth of fibroblasts was observed regularly and the culture medium was replaced. When the fibroblasts covered 90% of the culture flask, the mouse embryonic fibroblasts were collected for subsequent experiment.
(§2) 100 uL of WT mouse cells and Slc25a46−/− mouse cells with a cell concentration of 3.5×10^5 cells/mL were inoculated into a 96-well plate, and cultured in a CO2 incubator at 37° C. for 24 hours. […] An absorbance at 570 nm was detected with a multi-functional microplate scanner, and effects of test solutions with different concentrations on cell viability were calculated with a blank control as 100%.

Slc25a46−/− mice [3] = test: SOD enzyme activity in liver tissues after intragastric intervention; type: in vivo, mouse; conditions: intragastric every day for 10 days, Example 400, Comparative example 1 100, 2 244, 3 56, 4 500 mg/kg
Method: Animal experimental subjects were Slc25a46 knockout (Slc25a46−/−) mice of 1 month old, which were divided into a blank solvent control group (3 mice) and experimental groups (4 mice in each group). Under a same SPF level, the mice were fed with a full-nutrient feed prepared according to an AIN93G formula of Jiangsu Xietong Biology Co., Ltd., and subjected to intragastric administration every day, which lasted for a period of 10 days. […] The blank solvent control group was administered intragastrically with solvent water. After the intragastric administration experiment, brain tissues and liver tissues of the mice were collected for physiological and biochemical detections respectively, and an oxidative stress level and an ability of delaying aging were analyzed.
9 times volume of ice normal saline was added according to a ratio of a tissue weight (g) to a tissue volume (ml) of 1:9, and the tissues were cut into pieces with a surgical scissor, prepared into 10% tissue homogenate with a homogenizer (the homogenation lasted 10 seconds once, and was continuously carried out for 3 times to 5 times at intervals of 5 seconds on ice), and centrifuged at 2500 rpm to 3000 rpm for 10 minutes. A supernatant was taken for subsequent determination. […]

[4] = tested on: WT mouse embryonic fibroblasts; test: MTT in-vitro cytotoxicity experiment (cell morphology and viability), WT cells; type: cell-based; conditions: 24 hours; for effect on cell viability/growth (MTT): WT cells
Method: as §1, §2

[5] = high concentration (1,000 μg/mL to 2,000 μg/mL)

NC(=O)c1cccnc1 [Comparative example 4, nicotinamide]
NAMPT enzyme activity-Liver tissue (Slc25a46−/− mice [1]): 0.32 ± 0.01 ng/mg protein
effect on cell morphology ([2]; Slc25a46−/− MEF cells, up to 2,000 μg/mL): no effect on the cell morphology
effect on cell viability/growth (MTT) ([2]; 125 μg/mL to 2,000 μg/mL): no effect on the viability of the Slc25a46−/− cells and a viability of the WT cells
effect on cell viability/growth (MTT) [2, 5]: promotes growth of the Slc25a46−/− cells and the WT cells, without a concentration effect
SOD enzyme activity-Liver tissue (Slc25a46−/− mice [3]): 2.22 ± 0.02 U/mgprot
effect on cell morphology ([4]; WT MEF cells, up to 2,000 μg/mL): no effect on the cell morphology
effect on cell viability/growth (MTT) ([4]; 125 μg/mL to 2,000 μg/mL): no effect on the viability of the Slc25a46−/− cells and a viability of the WT cells
effect on cell viability/growth (MTT) [4, 5]: promotes growth of the Slc25a46−/− cells and the WT cells, without a concentration effect; also recorded: promote proliferation of the WT cells
